In PMC11397024, “Strategic Fluorination to Achieve a Potent, Selective, Metabolically Stable, and Orally Bioavailable Inhibitor of CSNK2” (Molecules, 2024):

Experiments:
[1] = biological target: T1, CLK4 (Homo sapiens, UniProt Q9HAZ1); assay: NanoBRET dose-response CLK4; format: cell-based; conditions: highest concentration tested 30 μM
T1 construct: expressed in transfected cells; host or cells: HEK293

[2] = biological target: T2, BMX (Homo sapiens, UniProt P51813); assay: NanoBRET K192; format: cell-based; conditions: HEK293
T2 construct: purchased Promega (NanoBRET Target Engagement K192 Kinase Selectivity System)
Summary of the method: (§1)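 HEK293 cells were transfected overnight with NanoLuc–kinase fusion vectors, then treated for 2 h at 37 °C with compound (added as 100 μM working solution) plus K10 tracer. BRET was read at 450/610 nm after substrate and extracellular inhibitor, and fractional occupancy was calculated against no-compound controls.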

[3] = biological target: T3, CAMK1 (Homo sapiens, UniProt Q14012); assay: NanoBRET K192; format: cell-based; conditions: HEK293
T3 construct: purchased Promega (NanoBRET Target Engagement K192 Kinase Selectivity System)
T3 sequence (Q14012 whole entry): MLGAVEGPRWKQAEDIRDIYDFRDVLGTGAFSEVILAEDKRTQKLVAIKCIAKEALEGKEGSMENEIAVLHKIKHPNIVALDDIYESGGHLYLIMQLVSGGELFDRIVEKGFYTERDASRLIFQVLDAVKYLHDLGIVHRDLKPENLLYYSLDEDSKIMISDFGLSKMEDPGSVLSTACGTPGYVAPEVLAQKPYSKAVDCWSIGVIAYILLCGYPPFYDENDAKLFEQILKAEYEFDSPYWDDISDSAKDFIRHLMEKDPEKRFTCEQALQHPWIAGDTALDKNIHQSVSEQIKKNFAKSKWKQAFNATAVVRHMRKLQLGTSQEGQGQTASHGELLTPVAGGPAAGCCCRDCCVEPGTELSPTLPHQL
Summary of the method: as §1

[4] = biological target: T4, CDK14 + Y (Homo sapiens, UniProt O94921); assay: NanoBRET K192; format: cell-based; conditions: HEK293
T4 construct: purchased Promega (NanoBRET Target Engagement K192 Kinase Selectivity System)
T4 sequence (O94921 whole entry): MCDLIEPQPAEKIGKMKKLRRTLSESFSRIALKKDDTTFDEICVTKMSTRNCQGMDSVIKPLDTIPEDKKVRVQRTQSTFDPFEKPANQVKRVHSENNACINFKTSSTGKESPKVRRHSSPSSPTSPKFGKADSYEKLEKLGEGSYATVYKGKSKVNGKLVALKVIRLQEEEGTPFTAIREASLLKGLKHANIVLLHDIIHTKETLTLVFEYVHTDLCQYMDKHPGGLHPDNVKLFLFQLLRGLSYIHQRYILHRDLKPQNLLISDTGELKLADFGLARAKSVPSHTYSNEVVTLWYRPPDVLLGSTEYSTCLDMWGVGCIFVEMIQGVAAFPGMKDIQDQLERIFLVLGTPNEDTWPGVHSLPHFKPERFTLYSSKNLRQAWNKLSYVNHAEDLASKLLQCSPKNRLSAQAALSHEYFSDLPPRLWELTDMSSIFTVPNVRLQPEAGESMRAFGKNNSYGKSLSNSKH
T4 sequence (Q8ND76 whole entry partner): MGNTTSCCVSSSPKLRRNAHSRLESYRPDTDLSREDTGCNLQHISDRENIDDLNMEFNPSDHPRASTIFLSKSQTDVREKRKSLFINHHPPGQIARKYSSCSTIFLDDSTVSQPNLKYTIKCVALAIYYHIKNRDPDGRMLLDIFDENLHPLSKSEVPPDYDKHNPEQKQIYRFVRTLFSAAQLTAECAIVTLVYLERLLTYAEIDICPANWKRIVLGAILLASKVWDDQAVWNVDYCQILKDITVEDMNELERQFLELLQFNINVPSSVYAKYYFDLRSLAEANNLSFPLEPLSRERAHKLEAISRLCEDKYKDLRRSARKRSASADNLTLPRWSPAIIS
Summary of the method: as §1

[5] = biological target: T5, CDK16 + Y (Homo sapiens, UniProt Q00536); assay: NanoBRET K192; format: cell-based; conditions: HEK293
T5 construct: purchased Promega (NanoBRET Target Engagement K192 Kinase Selectivity System)
Summary of the method: as §1

[6] = biological target: T6, CDK6 + D1 (Homo sapiens, UniProt Q00534); assay: NanoBRET K192; format: cell-based; conditions: HEK293
T6 construct: purchased Promega (NanoBRET Target Engagement K192 Kinase Selectivity System)
T6 sequence (Q00534 whole entry): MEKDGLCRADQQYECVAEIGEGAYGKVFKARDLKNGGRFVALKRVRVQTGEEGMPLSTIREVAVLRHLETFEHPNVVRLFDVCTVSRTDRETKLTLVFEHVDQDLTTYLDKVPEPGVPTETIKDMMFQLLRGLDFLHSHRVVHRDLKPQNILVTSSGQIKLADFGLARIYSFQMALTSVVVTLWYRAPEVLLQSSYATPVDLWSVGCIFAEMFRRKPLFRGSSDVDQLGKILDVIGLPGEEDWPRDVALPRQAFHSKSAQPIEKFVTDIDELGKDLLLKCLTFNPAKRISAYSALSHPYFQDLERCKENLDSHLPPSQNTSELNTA
T6 sequence (P24385 whole entry partner): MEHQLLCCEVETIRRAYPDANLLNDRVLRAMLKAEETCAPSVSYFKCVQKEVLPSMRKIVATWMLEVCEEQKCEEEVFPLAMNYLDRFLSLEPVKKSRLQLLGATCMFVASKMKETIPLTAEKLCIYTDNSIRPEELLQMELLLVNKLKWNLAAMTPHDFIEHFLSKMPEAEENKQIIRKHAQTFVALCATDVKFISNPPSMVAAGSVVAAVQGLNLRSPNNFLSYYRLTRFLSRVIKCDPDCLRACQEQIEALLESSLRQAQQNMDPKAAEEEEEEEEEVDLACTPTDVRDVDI
Summary of the method: as §1

[7] = biological target: T7, CSNK2A1 (Homo sapiens, UniProt P68400); assay: NanoBRET K192; format: cell-based
T7 construct: expressed in transfected cells; host or cells: HEK293
T7 sequence (P68400 whole entry): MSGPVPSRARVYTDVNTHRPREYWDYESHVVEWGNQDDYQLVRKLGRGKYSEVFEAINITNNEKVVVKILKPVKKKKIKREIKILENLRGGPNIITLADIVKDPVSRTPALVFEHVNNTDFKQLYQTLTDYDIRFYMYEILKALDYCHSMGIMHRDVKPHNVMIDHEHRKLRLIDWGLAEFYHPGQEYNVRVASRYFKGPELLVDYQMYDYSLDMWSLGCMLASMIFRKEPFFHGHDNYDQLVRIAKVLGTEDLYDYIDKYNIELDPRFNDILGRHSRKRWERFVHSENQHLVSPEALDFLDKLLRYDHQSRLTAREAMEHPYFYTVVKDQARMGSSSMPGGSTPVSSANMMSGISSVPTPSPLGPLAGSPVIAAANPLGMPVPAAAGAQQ
Summary of the method: as §1

[8] = biological target: T8, FES (Homo sapiens, UniProt P07332); assay: NanoBRET K192; format: cell-based; conditions: HEK293
T8 construct: purchased Promega (NanoBRET Target Engagement K192 Kinase Selectivity System)
T8 sequence (P07332 whole entry): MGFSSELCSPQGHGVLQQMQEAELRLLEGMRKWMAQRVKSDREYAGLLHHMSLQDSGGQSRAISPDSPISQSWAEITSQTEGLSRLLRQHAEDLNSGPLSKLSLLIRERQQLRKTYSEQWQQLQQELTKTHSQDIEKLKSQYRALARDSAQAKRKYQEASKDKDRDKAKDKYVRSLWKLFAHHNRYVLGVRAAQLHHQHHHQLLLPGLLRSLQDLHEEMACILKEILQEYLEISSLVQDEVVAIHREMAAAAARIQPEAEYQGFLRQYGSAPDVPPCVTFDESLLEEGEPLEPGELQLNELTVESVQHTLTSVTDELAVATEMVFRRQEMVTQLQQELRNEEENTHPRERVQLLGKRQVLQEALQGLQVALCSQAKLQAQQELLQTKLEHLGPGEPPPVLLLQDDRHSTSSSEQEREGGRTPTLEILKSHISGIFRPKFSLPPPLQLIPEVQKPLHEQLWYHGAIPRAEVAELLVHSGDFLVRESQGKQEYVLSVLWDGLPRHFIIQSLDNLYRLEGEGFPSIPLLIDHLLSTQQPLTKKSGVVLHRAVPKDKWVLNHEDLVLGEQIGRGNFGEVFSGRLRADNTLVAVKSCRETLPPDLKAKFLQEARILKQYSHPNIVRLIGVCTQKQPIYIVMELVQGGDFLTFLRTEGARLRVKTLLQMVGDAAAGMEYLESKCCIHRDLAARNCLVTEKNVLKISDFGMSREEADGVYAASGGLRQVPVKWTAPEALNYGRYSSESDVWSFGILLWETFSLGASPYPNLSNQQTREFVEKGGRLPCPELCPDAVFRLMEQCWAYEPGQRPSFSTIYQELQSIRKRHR
Summary of the method: as §1

[9] = biological target: T9, FGFR1 (Homo sapiens, UniProt P11362); assay: NanoBRET K192; format: cell-based; conditions: HEK293
T9 construct: purchased Promega (NanoBRET Target Engagement K192 Kinase Selectivity System)
T9 sequence (P11362 22-822): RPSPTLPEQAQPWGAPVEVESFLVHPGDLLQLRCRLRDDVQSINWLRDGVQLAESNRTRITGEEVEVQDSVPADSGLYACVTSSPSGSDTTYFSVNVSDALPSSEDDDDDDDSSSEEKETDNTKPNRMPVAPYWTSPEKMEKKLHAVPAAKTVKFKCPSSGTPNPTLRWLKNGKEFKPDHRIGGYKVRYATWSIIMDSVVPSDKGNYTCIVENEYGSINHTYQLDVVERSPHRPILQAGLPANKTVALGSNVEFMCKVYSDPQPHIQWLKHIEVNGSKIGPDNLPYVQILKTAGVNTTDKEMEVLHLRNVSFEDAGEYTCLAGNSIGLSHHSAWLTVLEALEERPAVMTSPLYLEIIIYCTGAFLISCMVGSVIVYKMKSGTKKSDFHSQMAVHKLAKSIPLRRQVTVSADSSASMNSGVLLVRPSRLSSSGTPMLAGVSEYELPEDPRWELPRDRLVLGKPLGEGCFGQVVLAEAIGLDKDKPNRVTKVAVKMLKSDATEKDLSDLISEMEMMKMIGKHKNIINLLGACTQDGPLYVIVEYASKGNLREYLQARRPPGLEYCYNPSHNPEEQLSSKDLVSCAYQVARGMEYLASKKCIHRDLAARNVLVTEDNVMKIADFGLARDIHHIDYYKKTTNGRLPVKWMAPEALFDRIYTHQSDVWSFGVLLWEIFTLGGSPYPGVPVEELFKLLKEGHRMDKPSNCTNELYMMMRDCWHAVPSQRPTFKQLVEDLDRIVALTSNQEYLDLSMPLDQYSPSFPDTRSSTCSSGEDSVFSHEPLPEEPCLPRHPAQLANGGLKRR
Summary of the method: as §1

[10] = biological target: T10, FYN (Homo sapiens, UniProt P06241); assay: NanoBRET K192; format: cell-based; conditions: HEK293
T10 construct: purchased Promega (NanoBRET Target Engagement K192 Kinase Selectivity System)
Summary of the method: as §1

[11] = biological target: T11, HIPK2 (Homo sapiens, UniProt Q9H2X6); assay: NanoBRET K192; format: cell-based; conditions: HEK293
T11 construct: purchased Promega (NanoBRET Target Engagement K192 Kinase Selectivity System)
Summary of the method: as §1

[12] = biological target: T12, INSR (Homo sapiens, UniProt P06213); assay: NanoBRET K192; format: cell-based; conditions: HEK293
T12 construct: purchased Promega (NanoBRET Target Engagement K192 Kinase Selectivity System)
Summary of the method: as §1

[13] = biological target: T13, ITK (Homo sapiens, UniProt Q08881); assay: NanoBRET K192; format: cell-based; conditions: HEK293
T13 construct: purchased Promega (NanoBRET Target Engagement K192 Kinase Selectivity System)
T13 sequence (Q08881 whole entry): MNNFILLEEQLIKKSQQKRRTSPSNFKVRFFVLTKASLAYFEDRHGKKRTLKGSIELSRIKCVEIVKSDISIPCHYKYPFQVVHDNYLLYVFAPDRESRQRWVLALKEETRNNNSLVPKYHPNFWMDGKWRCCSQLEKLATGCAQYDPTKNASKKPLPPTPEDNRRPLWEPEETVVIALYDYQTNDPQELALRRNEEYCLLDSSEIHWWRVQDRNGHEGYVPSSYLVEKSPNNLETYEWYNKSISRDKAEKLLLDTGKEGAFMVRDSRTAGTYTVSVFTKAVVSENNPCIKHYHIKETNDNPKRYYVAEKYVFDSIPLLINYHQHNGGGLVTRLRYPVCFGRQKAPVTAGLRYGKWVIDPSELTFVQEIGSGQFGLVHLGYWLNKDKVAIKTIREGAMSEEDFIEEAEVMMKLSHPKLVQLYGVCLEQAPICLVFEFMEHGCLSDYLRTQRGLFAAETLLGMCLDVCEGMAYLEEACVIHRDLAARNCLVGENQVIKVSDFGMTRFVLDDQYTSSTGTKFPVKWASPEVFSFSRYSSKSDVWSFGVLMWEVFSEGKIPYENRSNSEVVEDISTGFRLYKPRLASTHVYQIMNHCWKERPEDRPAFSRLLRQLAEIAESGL
Summary of the method: as §1

[14] = biological target: T14, LATS1 (Homo sapiens, UniProt O95835); assay: NanoBRET K192; format: cell-based; conditions: HEK293
T14 construct: purchased Promega (NanoBRET Target Engagement K192 Kinase Selectivity System)
Summary of the method: as §1

[15] = biological target: T15, LRRK2 (Homo sapiens, UniProt Q5S007); assay: NanoBRET K192; format: cell-based; conditions: HEK293
T15 construct: purchased Promega (NanoBRET Target Engagement K192 Kinase Selectivity System)
Summary of the method: as §1

[16] = biological target: T16, MAP3K19 (Homo sapiens, UniProt Q56UN5); assay: NanoBRET K192; format: cell-based; conditions: HEK293
T16 construct: purchased Promega (NanoBRET Target Engagement K192 Kinase Selectivity System)
Summary of the method: as §1

[17] = biological target: T17, MAP3K4 (Homo sapiens, UniProt Q9Y6R4); assay: NanoBRET K192; format: cell-based; conditions: HEK293
T17 construct: purchased Promega (NanoBRET Target Engagement K192 Kinase Selectivity System)
Summary of the method: as §1

[18] = biological target: T18, MAPK4 (Homo sapiens, UniProt P31152); assay: NanoBRET K192; format: cell-based; conditions: HEK293
T18 construct: purchased Promega (NanoBRET Target Engagement K192 Kinase Selectivity System)
Summary of the method: as §1

[19] = biological target: T19, MUSK (Homo sapiens, UniProt O15146); assay: NanoBRET K192; format: cell-based; conditions: HEK293
T19 construct: purchased Promega (NanoBRET Target Engagement K192 Kinase Selectivity System)
Summary of the method: as §1

[20] = biological target: T20, MYLK3 (Homo sapiens, UniProt Q32MK0); assay: NanoBRET K192; format: cell-based; conditions: HEK293
T20 construct: purchased Promega (NanoBRET Target Engagement K192 Kinase Selectivity System)
Summary of the method: as §1

[21] = biological target: T21, RPS6KA6 (Homo sapiens, UniProt Q9UK32); assay: NanoBRET K192; format: cell-based; conditions: HEK293
T21 construct: purchased Promega (NanoBRET Target Engagement K192 Kinase Selectivity System)
Summary of the method: as §1

[22] = biological target: T22, SIK1 (Homo sapiens, UniProt P57059); assay: NanoBRET K192; format: cell-based; conditions: HEK293
T22 construct: purchased Promega (NanoBRET Target Engagement K192 Kinase Selectivity System)
Summary of the method: as §1

[23] = biological target: T23, TBK1 (Homo sapiens, UniProt Q9UHD2); assay: NanoBRET K192; format: cell-based; conditions: HEK293
T23 construct: purchased Promega (NanoBRET Target Engagement K192 Kinase Selectivity System)
Summary of the method: as §1

[24] = biological target: T24, TNK2 (Homo sapiens, UniProt Q07912); assay: NanoBRET K192; format: cell-based; conditions: HEK293
T24 construct: purchased Promega (NanoBRET Target Engagement K192 Kinase Selectivity System)
Summary of the method: as §1

[25] = biological target: T25, TXK (Homo sapiens, UniProt P42681); assay: NanoBRET K192; format: cell-based; conditions: HEK293
T25 construct: host or cells: HEK293
Summary of the method: as §1

[26] = test system: mouse hepatitis virus (MHV); assay: MHV assay (MHV-nLuc in DBT cells); conditions: Murine coronavirus, read-out: MHV pIC50 (converted)
Protocol: DBT cells were cultured at 37 °C in Dulbecco’s modified Eagle medium (DMEM; Sigma-Aldrich, St. Louis, MO, USA) supplemented with 10% fetal bovine serum (FBS; Avantor, Randor, PA, USA) and penicillin and streptomycin (Sigma-Aldrich, St. Louis, MO, USA). DBT cells were plated in 96-well plates to be 80% confluent at the start of the assay. Test compounds or positive control EIDD-1931 were diluted to 15 μM in DMEM. Serial 4-fold dilutions were made in DMEM, providing a concentration range of 15–0.22 μM. Media were aspirated from the DBT cells, and 100 μL of the diluted test compounds was added to the cells for 1 h at 37 °C. After 1 h, MHV-nLuc5 was added at an MOI of 0.1 in 50 μL of DMEM so that the final concentration of the first dilution of the compound was 10 μM (T = 0). After 10 h, the media were aspirated, and the cells were washed with PBS and lysed with passive lysis 5X buffer (Promega, Madison, WI, USA) for 20 min at room temperature. Relative light units (RLUs) were measured using a luminometer (Promega; GloMax, Madison, WI, USA). Triplicate data were analyzed in GraphPad Prism version 9.4.1 for macOS to generate IC50 values.

T1 sequence (Q9HAZ1 whole entry): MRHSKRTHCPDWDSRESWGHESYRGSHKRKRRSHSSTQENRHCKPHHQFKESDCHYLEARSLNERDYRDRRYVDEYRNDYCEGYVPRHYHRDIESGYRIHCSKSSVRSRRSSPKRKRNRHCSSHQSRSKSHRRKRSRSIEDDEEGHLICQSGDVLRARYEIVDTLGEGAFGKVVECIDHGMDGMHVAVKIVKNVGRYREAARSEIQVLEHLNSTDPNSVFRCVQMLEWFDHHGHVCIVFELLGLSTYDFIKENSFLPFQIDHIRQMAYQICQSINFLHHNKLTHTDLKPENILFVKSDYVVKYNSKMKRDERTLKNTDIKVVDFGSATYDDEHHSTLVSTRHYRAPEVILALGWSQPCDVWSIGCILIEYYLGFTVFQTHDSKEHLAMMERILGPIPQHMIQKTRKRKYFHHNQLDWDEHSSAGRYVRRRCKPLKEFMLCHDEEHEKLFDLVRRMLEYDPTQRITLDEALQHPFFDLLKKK

In the case of CCC(=O)Nc1cc(Nc2cc(NC3CC3)n3ncc(C#N)c3n2)c(F)cc1N1CCC[C@H](NC)C1 [Compound 2, (S)-N-(5-((3-cyano-7-(cyclopropylamino)pyrazolo[1,5-a]pyrimidin-5-yl)amino)-4-fluoro-2-(3-(methylamino)piperidin-1-yl)phenyl)propionamide], the IC50 [1] is reported as greater than 30 µM, the receptor occupancy at 10 µM [2] is reported as 0.6% and the receptor occupancy at 10 µM [3] is reported as 26.2%. For the same compound, the receptor occupancy at 10 µM [4] was 29.4%, the receptor occupancy at 10 µM [5] was 25.8% and the receptor occupancy at 10 µM [6] was 11.9%. The “% occupancy at 10 μM” value ([7]; CSNK2A1, HEK293) was 97%, the receptor occupancy at 10 µM ([7]; HEK293, CSNK2A1) was 97.3% and the receptor occupancy at 10 µM [8] was 11.7%. It also gave a receptor occupancy at 10 µM [9] of 10.4%, a receptor occupancy at 10 µM [10] of 18.1% and a receptor occupancy at 10 µM [11] of 21.5%. For the same compound, the receptor occupancy at 10 µM [12] was 1.2%, the receptor occupancy at 10 µM [13] was 11.9% and the receptor occupancy at 10 µM [14] was -0.4%. It also gave a receptor occupancy at 10 µM [15] of -1.5%, a receptor occupancy at 10 µM [16] of 2.4% and a receptor occupancy at 10 µM [17] of 4.9%. It also gave a receptor occupancy at 10 µM [18] of 0.9%, a receptor occupancy at 10 µM [19] of -0.5% and a receptor occupancy at 10 µM [20] of 0.4%. The receptor occupancy at 10 µM [21] was 10.6%, the receptor occupancy at 10 µM [22] was 6.4% and the receptor occupancy at 10 µM [23] was 18.5%. The receptor occupancy at 10 µM [24] was 12.5%, the receptor occupancy at 10 µM [25] was -3.2% and the IC50 [26] was 158 nM.
